The values below come from patent publication US10654853B2, “Spiro-condensed pyrrolidine derivatives as deubiquitylating enzymes (DUB) inhibitors” (MISSION THERAPEUTICS LIMITED, priority 2016, dated 2020).

In the assay the target is Cezanne 1 (Homo sapiens (Human), UniProt Q6GQQ9). The experiment in a line: Cezanne 1 biochemical IC50 assay (fluorescence polarisation, TAMRA labelled peptide linked to ubiquitin). Conditions: Cezanne 1 biochemical IC50 assay; 30 min pre-incubation, read after 2 hr at room temperature; read-out: IC50 range. The procedure, abridged: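 FLAG-tagged Cezanne 1, expressed in HEK293T and FLAG-purified, was preincubated with compound for 30 min at room temperature in Tris pH 7.5 buffer with Tween 20, BSA and β-mercaptoethanol. Reactions were started with 50 nM TAMRA-peptide isopeptide-linked to ubiquitin. Fluorescence polarisation (ex 540/em 590 nm) was read immediately and after 2 h.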

pIC50: −log10 of the molar value.

Cezanne 1, sequence (Q6GQQ9 whole entry): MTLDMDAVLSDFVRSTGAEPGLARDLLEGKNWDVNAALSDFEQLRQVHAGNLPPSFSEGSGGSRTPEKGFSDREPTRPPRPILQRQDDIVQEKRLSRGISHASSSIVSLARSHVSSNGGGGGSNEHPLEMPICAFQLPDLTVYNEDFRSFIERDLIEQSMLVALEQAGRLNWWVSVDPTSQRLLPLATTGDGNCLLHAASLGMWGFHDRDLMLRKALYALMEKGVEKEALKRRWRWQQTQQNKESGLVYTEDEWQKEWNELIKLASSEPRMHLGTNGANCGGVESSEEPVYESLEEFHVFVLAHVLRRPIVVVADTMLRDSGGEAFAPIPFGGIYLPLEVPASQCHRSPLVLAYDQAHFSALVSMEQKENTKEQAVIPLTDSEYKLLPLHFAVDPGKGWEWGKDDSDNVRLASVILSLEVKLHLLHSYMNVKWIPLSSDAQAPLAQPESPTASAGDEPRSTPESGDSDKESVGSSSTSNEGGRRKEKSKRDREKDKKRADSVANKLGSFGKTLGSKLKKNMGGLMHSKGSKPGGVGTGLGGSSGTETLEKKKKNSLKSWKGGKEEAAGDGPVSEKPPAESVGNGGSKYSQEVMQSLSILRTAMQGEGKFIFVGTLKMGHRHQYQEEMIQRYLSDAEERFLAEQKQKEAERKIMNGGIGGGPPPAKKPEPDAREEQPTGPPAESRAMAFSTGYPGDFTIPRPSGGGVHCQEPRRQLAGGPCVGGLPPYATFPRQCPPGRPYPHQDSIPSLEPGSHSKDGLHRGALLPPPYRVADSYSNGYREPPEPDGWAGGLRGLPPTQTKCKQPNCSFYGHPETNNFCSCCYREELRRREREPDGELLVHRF

With `N#CN1CCC2(Cc3cc(-c4cc(OC(F)(F)F)ccc4Cl)ccc3NC2=O)C1` (stereo not shown) [Example 125, 6′-(2-Chloro-5-(trifluoromethoxy)phenyl)-2′-oxo-1′,4′-dihydro-2′H-spiro[pyrrolidine-3,3′-quinoline]-1-carbonitrile], the pIC50 is 6.00 to 7.00.

Take `CN1CCN(c2ccc(-c3ccc4c(c3)CC3(CCN(C#N)C3)C(=O)N4)cc2)CC1` (stereo not shown) [Example 126, 6′-(4-(4-Methylpiperazin-1-yl)phenyl)-2′-oxo-1′,4′-dihydro-2′H-spiro[pyrrolidine-3,3′-quinoline]-1-carbonitrile]: the pIC50 was 6.00 to 7.00.

Take `N#CN1CCC2(Cc3cc(-c4ccc(C(=O)NCc5ccccc5)cc4)ccc3NC2=O)C1` (stereo not shown) [Example 127, N-Benzyl-4-(1-cyano-2′-oxo-1′,4′-dihydro-2′H-spiro[pyrrolidine-3,3′-quinolin]-6′-yl)benzamide]: the pIC50 is 6.00 to 7.00.

As for `Cc1n[nH]cc1-c1ccc2c(c1)CC1(CCN(C#N)C1)C(=O)N2` (stereo not shown) [Example 128, 6′-(3-Methyl-1H-pyrazol-4-yl)-2′-oxo-1′,4′-dihydro-2′H-spiro[pyrrolidine-3,3′-quinoline]-1-carbonitrile], the pIC50 was 6.00 to 7.00.

In the case of `N#CN1CCC2(Cc3cc(-c4ccc(CN5CCOCC5)cc4)ccc3NC2=O)C1` (stereo not shown) [Example 129, 6′-(4-(Morpholinomethyl)phenyl)-2′-oxo-1′,4′-dihydro-2′H-spiro[pyrrolidine-3,3′-quinoline]-1-carbonitrile], the pIC50 was 6.00 to 7.00.

Regarding `CN(C)C(=O)c1cccc(-c2ccc3c(c2)CC2(CCN(C#N)C2)C(=O)N3)c1` (stereo not shown) [Example 130, 3-(1-Cyano-2′-oxo-1′,4′-dihydro-2′H-spiro[pyrrolidine-3,3′-quinolin]-6′-yl)-N,N-dimethylbenzamide], the pIC50 was 6.00 to 7.00.

For the compound `Cc1cc(-c2ccc3c(c2)CC2(CCN(C#N)C2)C(=O)N3)ccn1` (stereo not shown) [Example 131, 6′-(2-Methylpyridin-4-yl)-2′-oxo-1′,4′-dihydro-2′H-spiro[pyrrolidine-3,3′-quinoline]-1-carbonitrile], the pIC50 was 6.00 to 7.00.

`Cc1ccc2[nH]ncc2c1-c1ccc2c(c1)NC(=O)[C@@]1(CCN(C#N)C1)C2` [Example 132, (R)-7′-(5-Methyl-H-indazol-4-yl)-2′-oxo-1′,4′-dihydro-2′H-spiro[pyrrolidine-3,3′-quinoline]-1-carbonitrile]: the pIC50 is 6.00 to 7.00.

As for `N#CN1CCC2(Cc3ccc(-c4cccc5[nH]ncc45)cc3NC2=O)C1` (stereo not shown) [Example 133, 7′-(1H-Indazol-4-yl)-2′-oxo-1′,4′-dihydro-2′H-spiro[pyrrolidine-3,3′-quinoline]-1-carbonitrile], the pIC50 is 6.00 to 7.00.

As for `N#CN1CCC2(Cc3cc(-c4cccc5[nH]ncc45)ccc3NC2=O)C1` (stereo not shown) [Example 134, 6′-(1H-Indazol-4-yl)-2′-oxo-1′,4′-dihydro-2′H-spiro[pyrrolidine-3,3′-quinoline]-1-carbonitrile], the pIC50 was 6.00 to 7.00.

As for `N#CN1CCC2(C1)Oc1ncc(-c3cccc4[nH]ncc34)cc1NC2=O` (stereo not shown) [Example 135, 7-(1H-Indazol-4-yl)-2-oxo-1,2-dihydrospiro[pyrido[2,3-b][1,4]oxazine-3,3′-pyrrolidine]-1′-carbonitrile], the negative logarithm of the IC50 (pIC50) was greater than 7.00.

As for `Cn1ncc2c(-c3cnc4c(c3)NC(=O)C3(CCN(C#N)C3)O4)cccc21` (stereo not shown) [Example 136, 7-(1-Methyl-1H-indazol-4-yl)-2-oxo-1,2-dihydrospiro[pyrido[2,3-b][1,4]oxazine-3,3′-pyrrolidine]-1′-carbonitrile], the pIC50 was greater than 7.00.

Consider `N#CN1CCC2(C1)Oc1ncc(-c3cccc4c3cnn4CCO)cc1NC2=O` (stereo not shown) [Example 137, 7-(1-(2-Hydroxyethyl)-1H-indazol-4-yl)-2-oxo-1,2-dihydrospiro[pyrido[2,3-b][1,4]oxazine-3,3′-pyrrolidine]-1′-carbonitrile], for which the pIC50 is greater than 7.00.

With `COc1ccc(-c2cnc3c(c2)NC(=O)C2(CCN(C#N)C2)O3)c(C)n1` (stereo not shown) [Example 138, 7-(6-Methoxy-2-methylpyridin-3-yl)-2-oxo-1,2-dihydrospiro[pyrido[2,3-b][1,4]oxazine-3,3′-pyrrolidine]-1′-carbonitrile], the pIC50 was 6.00 to 7.00.

On to `N#CN1CCC2(C1)Oc1nc(-c3cccc4[nH]ncc34)ccc1NC2=O` (stereo not shown) [Example 139, 6-(1H-Indazol-4-yl)-2-oxo-1,2-dihydrospiro[pyrido[2,3-b][1,4]oxazine-3,3′-pyrrolidine]-1′-carbonitrile], for which the pIC50 was 6.00 to 7.00.

For the compound `COCCn1ncc2c(-c3cnc4c(c3)NC(=O)C3(CCN(C#N)C3)O4)cccc21` (stereo not shown) [Example 140, 7-(1-(2-Methoxyethyl)-1H-indazol-4-yl)-2-oxo-1,2-dihydrospiro[pyrido[2,3-b][1,4]oxazine-3,3′-pyrrolidine]-1′-carbonitrile], the pIC50 was 6.00 to 7.00.

As to `N#CN1CCC2(C1)Oc1nc(C(=O)Nc3ccc(F)cc3)ccc1NC2=O` (stereo not shown) [Example 141, 1′-Cyano-N-(4-fluorophenyl)-2-oxo-1,2-dihydrospiro[pyrido[2,3-b][1,4]oxazine-3,3′-pyrrolidine]-6-carboxamide], the pIC50 was 5.00 to 6.00.

In the case of `N#CN1CCC2(C1)Oc1nc(C(=O)N3CCCCC3)ccc1NC2=O` (stereo not shown) [Example 142, 2-Oxo-6-(piperidine-1-carbonyl)-1,2-dihydrospiro[pyrido[2,3-b][1,4]oxazine-3,3′-pyrrolidine]-1′-carbonitrile], the pIC50 was 5.00 to 6.00.

For the compound `N#CN1CCC2(C1)Oc1nc(C(=O)Nc3ccccc3)ccc1NC2=O` (stereo not shown) [Example 143, 1′-Cyano-2-oxo-N-phenyl-1,2-dihydrospiro[pyrido[2,3-b][1,4]oxazine-3,3′-pyrrolidine]-6-carboxamide], the negative-log IC50 (pIC50) is 6.00 to 7.00.

As to `N#CN1CCC2(C1)Oc1nc(C(=O)Nc3ccccc3F)ccc1NC2=O` (stereo not shown) [Example 144, 1′-Cyano-N-(2-fluorophenyl)-2-oxo-1,2-dihydrospiro[pyrido[2,3-b][1,4]oxazine-3,3′-pyrrolidine]-6-carboxamide], the pIC50 is 6.00 to 7.00.

With `Cc1cnn(C)c1-c1cnc2c(c1)NC(=O)C1(CCN(C#N)C1)N2` (stereo not shown) [Example 146, 7-(1,4-Dimethyl-1H-pyrazol-5-yl)-2-oxo-1,4-dihydro-2H-spiro[pyrido[2,3-b]pyrazine-3,3′-pyrrolidine]-1′-carbonitrile], the pIC50 was 6.00 to 7.00.

As to `N#CN1CCC2(C1)Nc1nc(-c3ccccc3)ccc1NC2=O` (stereo not shown) [Example 147, 2-Oxo-6-phenyl-1,4-dihydro-2H-spiro[pyrido[2,3-b]pyrazine-3,3′-pyrrolidine]-1′-carbonitrile], the pIC50 is 5.00 to 6.00.
